# Data reported in patent US20060147397A1, “Composition for preparation for external use on skin and method of using the same” (Kose Corporation, priority 2002, published 2006).
# What was measured:
# [1] = test system: Murine cultured B16 melanoma cells; assay: Melanin generation/formation suppression test based on cell culture (degree of whiteness); design: key: ++: distinctively stronger whiteness over the reference; +: apparently stronger whiteness over the reference; ±: slightly stronger whiteness over the reference; −: remained unchanged
# Procedure: Murine cultured B16 melanoma cells were used. An appropriate quantity of a 10% FBS-containing MEM medium was placed in two 6-well plates, the B16 melanoma cells were seeded therein and allowed to stand at 37° C. under a carbon dioxide concentration of 5 vol %. Next day, a sample preparation solution was added and mixed therewith so as to adjust the final concentrations of the Cistus ladaniferus L. extract obtained in Example 1, and labdenic acids and methyl esters and ethyl esters thereof obtained in Example 2 to 0 (reference), 5 and 10 μg/mL, and of lily extract (product of Maruzen Pharmaceuticals Co., Ltd.), which is a known whitening agent, to 0 and 100 μg/mL. The medium was exchanged on the fifth day of culture, and the sample preparation solution was added again. The medium was removed next day, the cells were collected from one plate after washing them using a phosphate buffer (pH7), and degree of whitening of the cultured B16 melanoma cells was evaluated according to the criteria shown below. […]
# • ++: distinctively stronger whiteness over the reference; • +: apparently stronger whiteness over the reference; • ±: slightly stronger whiteness over the reference; and • −: remained unchanged.
# Murine cultured B16 melanoma cells were used. An appropriate quantity of a 10% FBS-containing MEM medium was placed in two 6-well plates, the B16 melanoma cells were seeded therein and allowed to stand at 37° C. under a carbon dioxide concentration of 5 vol %. Next day, a sample preparation solution was added and mixed therewith so as to adjust the final concentrations of the Cistus ladaniferus L. extract obtained in Example 1, and labdenic acids and methyl esters and ethyl esters thereof obtained in Example 2 to 0 (reference), 5 and 10 μg/mL, and of Glycyrrhiza glabra extract (product of Maruzen Pharmaceuticals Co., Ltd.), which is a known whitening agent, to 0 and 100 μg/mL. The medium was exchanged on the fifth day of culture, and the sample preparation solution was added again. The medium was removed next day, the cells were collected from one plate after washing them using a phosphate buffer (pH7), and degree of whitening of the cultured B16 melanoma cells was evaluated according to the criteria shown below.
# [2] = test system: Murine cultured B16 melanoma cells; assay: Cell survival rate test based on cell culture (crystal violet); conditions: mouse, 5 days, 10 μg/mL
# Procedure: Murine cultured B16 melanoma cells were used. An appropriate quantity of a 10% FBS-containing MEM medium was placed in two 6-well plates, the B16 melanoma cells were seeded therein and allowed to stand at 37° C. under a carbon dioxide concentration of 5 vol %. Next day, a sample preparation solution was added and mixed therewith so as to adjust the final concentrations of the Cistus ladaniferus L. extract obtained in Example 1, and labdenic acids and methyl esters and ethyl esters thereof obtained in Example 2 to 0 (reference), 5 and 10 μg/mL, and of lily extract (product of Maruzen Pharmaceuticals Co., Ltd.), which is a known whitening agent, to 0 and 100 μg/mL. The medium was exchanged on the fifth day of culture, and the sample preparation solution was added again. The medium was removed next day, the cells were collected from one plate after washing them using a phosphate buffer (pH7), and degree of whitening of the cultured B16 melanoma cells was evaluated according to the criteria shown below.
# On the other plate, the cells were fixed with formalin, and dyed by adding an 1% crystal violet solution. Cell survival rates for the individual sample concentrations were measured using a monocellator (product of Olympus Corporation).
# Murine cultured B16 melanoma cells were used. An appropriate quantity of a 10% FBS-containing MEM medium was placed in two 6-well plates, the B16 melanoma cells were seeded therein and allowed to stand at 37° C. under a carbon dioxide concentration of 5 vol %. […] The medium was removed next day, the cells were collected from one plate after washing them using a phosphate buffer (pH7), and degree of whitening of the cultured B16 melanoma cells was evaluated according to the criteria shown below.
# [3] = test system: Human neonatal fibroblast NB1RGB; assay: Cell activation test based on cell culture (cell proliferation ratio)
# Procedure: Human neonatal fibroblast NB1RGB was used. An appropriate quantity of medium was placed in a 24-well plate, the fibroblast NB1RGB was seeded therein and allowed to stand at 37 ° C. under a carbon dioxide concentration of 5 vol %. Next day, a sample preparation solution was added and mixed therewith so as to adjust the final concentrations of the Cistus ladaniferus L. extract obtained in Example 1, and labdenic acids and methyl esters and ethyl esters thereof obtained in Example 2 to 0 (reference), 5 and 10 μg/mL, and of Panax ginseng extract (product of Maruzen Pharmaceuticals Co., Ltd.), which is a known cell activator, to 0 and 100 μg/mL. The medium was exchanged on the fourth day of culture, and the sample preparation solution was added again. The medium was removed next day, the cells were washed using a phosphate buffer and collected, and evaluated in terms of cell proliferation rate based on comparison of the number of fibroblast NB1RGB cells grown in the individual sample preparation solutions with that of the reference. […]
# The number of cells grown in each sample preparation solution was compared with the number of cells of the reference, and cell activation effect was evaluated using cell proliferation ratio as an index. The number of cells was counted using a blood cell counter plate.
# Human neonatal fibroblast NB1RGB was used. An appropriate quantity of medium was placed in a 24-well plate, the fibroblast NB1RGB was seeded therein and allowed to stand at 37 ° C. under a carbon dioxide concentration of 5 vol %. Next day, a sample preparation solution was added and mixed therewith so as to adjust the final concentrations of the Cistus ladaniferus L. extract obtained in Example 1, and labdenic acids and methyl esters and ethyl esters thereof obtained in Example 2 to 0 (reference), 5 and 10 μg/mL, and of cactus extract, which is a known cell activator, to 0 and 100 μg/mL. The medium was exchanged on the fourth day of culture, and the sample preparation solution was added again. The medium was removed next day, the cells were washed using a phosphate buffer and collected, and evaluated in terms of cell proliferation rate based on comparison of the number of fibroblast NB1RGB cells grown in the individual sample preparation solutions with that of the reference.
# [4] = test system: Murine cultured B16 melanoma cells; assay: Melanin generation/formation suppression test based on cell culture (degree of whiteness); design: key: ++: distinctively stronger whiteness over the reference; +: apparently stronger whiteness over the reference; ±: slightly stronger whiteness over the reference; −: remained unchanged; remark: listed apart in the source
# [5] = final concentration 5 μg/mL + lily extract 100 μg/mL
# [6] = final concentration 10 μg/mL, lily extract 0 μg/mL
# [7] = final concentration 5 μg/mL + Panax ginseng extract 100 μg/mL
# [8] = final concentration 5 μg/mL, additional concentration of cactus extract 100 μg/mL, vs reference
# [9] = final concentration 10 μg/mL, Panax ginseng extract 0 μg/mL
# [10] = final concentration 10 μg/mL, cactus extract 0 μg/mL, vs reference
# [11] = final concentration 5 μg/mL + Glycyrrhiza glabra extract 100 μg/mL
# [12] = final concentration 10 μg/mL, Glycyrrhiza glabra extract 0 μg/mL
SMILES,"Degree of whiteness [1, 5]","Degree of whiteness [1, 6]",Cell survival rate [2] [%],"Cell-activation rate [3, 7] [%]","Cell-activation rate [3, 8] [%]","Cell-activation rate [3, 9] [%]","Cell-activation rate [3, 10] [%]","Degree of whiteness [4, 11]","Degree of whiteness [4, 12]"
"CC1=CCC2C(C)(C)CCCC2(C)C1CCC(C)CC(=O)O (stereo not drawn) [Compound 4, labd-7-en-15-oic acid]",++,+,93,322,315,130,130,++,+
"CC1=C(CCC(C)CC(=O)O)C2(C)CCCC(C)(C)C2CC1 (stereo not drawn) [Compound 1, labd-8-en-15-oic acid]",++,+,94,329,310,128,128,++,+
"C=C1CCC2C(C)(C)CCCC2(C)C1CCC(C)CC(=O)O (stereo not drawn) [Compound 7, labd-8(17)-en-15-oic acid]",++,+,98,333,170,135,135,++,+
